The target of one data set is T1, hGluA1i (Homo sapiens, UniProt P42261).
T1 construct: expressed in transfected cells; host or cells: CHO cells
Nature of the data set: Ca2+ influx assay in hGluA1i CHO cells. The conditions noted are these: in the presence of glutamate (3 mM). It counts as cell-based. As to the method:
Ca^2+ influx assays using human GluA1/flip and human stargazin co-expressing CHO cells plated at 3 × 10^4 cells/well in 96-well Black Clear plates (Corning Incorporated, Corning, NY) were performed as previously described, with some modifications. For evaluation of the species difference, rat GluA1/flip expressing CHO cells were plated. For mutant channels, the human GluA1i S743A mutant was generated using the In-Fusion HD Cloning Kit (Takara Bio Inc., Kusatsu, Japan) according to the manufacturer's protocol and transiently introduced to CHO cells by Gene Pulser II Electroporation System (Bio-Rad Laboratories, Inc., Hercules, CA). Relative increases of intracellular Ca^2+ levels were monitored for 3 min with a fluorometric imaging plate reader (CellLux, Perkin Elmer Life and Analytical Sciences, Inc., Shelton, CT). […]
Human GluA1/flip and human stargazin co-expressing CHO cells were plated at 3×10^4 cells/well in 96-well Black Clear plate (Corning Incorporated, Corning, NY). […] Relative increases of intracellular Ca^2+ levels by compounds in the presence and absence of 3 mM L-glutamate were monitored for 3 min by fluorometric imaging plate reader (CellLux, Perkin Elmer Life and Analytical Sciences, Inc., Shelton, CT). Activity of compound was defined as integration value of fluorescence value of each detection point. […] EC50 values were calculated by logistic regression analysis.

In a further data set the test system is 97 targets. The data set can be described thus: In vitro selectivity profile (Ricerca). Particulars: 10 μM.
Another data set has as its target T2, lipoxygenase 5-LO (Homo sapiens, UniProt P09917).
T2 construct: Ricerca, Taipei, Taiwan
T2 sequence (P09917 1-674): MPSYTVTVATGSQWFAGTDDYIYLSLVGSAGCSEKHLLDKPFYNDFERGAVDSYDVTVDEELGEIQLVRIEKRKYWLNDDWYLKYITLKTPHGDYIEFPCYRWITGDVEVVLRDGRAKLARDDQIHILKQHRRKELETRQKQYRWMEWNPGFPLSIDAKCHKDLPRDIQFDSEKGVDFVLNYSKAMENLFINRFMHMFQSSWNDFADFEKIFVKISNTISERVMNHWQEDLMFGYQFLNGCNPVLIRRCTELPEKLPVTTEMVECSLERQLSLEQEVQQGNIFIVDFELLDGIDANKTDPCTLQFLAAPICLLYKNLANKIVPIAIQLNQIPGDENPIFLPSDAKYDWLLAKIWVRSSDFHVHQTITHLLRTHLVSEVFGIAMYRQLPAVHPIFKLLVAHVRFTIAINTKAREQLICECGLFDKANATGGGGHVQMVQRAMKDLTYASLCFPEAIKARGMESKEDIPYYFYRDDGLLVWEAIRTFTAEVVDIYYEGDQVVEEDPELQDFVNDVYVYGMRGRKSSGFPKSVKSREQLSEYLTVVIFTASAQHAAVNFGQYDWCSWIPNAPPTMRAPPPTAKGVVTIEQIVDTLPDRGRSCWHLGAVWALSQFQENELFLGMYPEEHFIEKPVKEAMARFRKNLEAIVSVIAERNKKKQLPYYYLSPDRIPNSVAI
The data set can be described thus: Lipoxygenase 5-LO enzyme activity. It counts as biochemical.

Another data set deals with BDNF and Gadd45b mRNA. The data set can be described thus: AMPA-induced BDNF and Gadd45b mRNA after 14 days of dosing. It counts as in vivo, mouse. The conditions noted are these: pre-administration 0.3 mg/kg, p.o. for 14 days. The method, then: Male ICR mice at 7 weeks old were treated with orally administered vehicle or TAK-653. For the repeated dose study, TAK-653 (0.3 mg/kg, p.o.) or vehicle was administered for 14 days. AMPA at designated doses was intravenously (i.v.) administered 1 h after oral administration. Three hours after i.v. administration of AMPA, right hippocampi were isolated from the mice by euthanasia and acutely frozen on dry ice. Total RNA from mouse hippocampus was extracted with RNeasy 96 kit (Qiagen, Hilden, Germany). Reverse transcription of total RNA was performed using the High-capacity cDNA Archive kit (Life Technologies, Carlsbad, CA). Real-time quantitative PCR was carried out using an ABI PRISM 7900HT sequence detection system (Life Technologies) using PCR reagents (Nippon Gene Co. Limited, Toyama, Japan). Primers used for BDNF analyses were as follows: BDNF forward primer, 5’-[…]-3’; BDNF reverse primer, 5’-[…]-3’; BDNF TaqMan probe, 5’-FAM- […]-TAMRA-3’. Primers used for Gadd45b analyses were as follows: Gadd45b forward primer, 5’-[…]-3’; Gadd45b reverse primer, 5’-GCGCCAGCCTCTGCAT-3’; Gadd45b TaqMan probe, 5’'-FAM-[…]-MGB-3’. […] Concentrations of GAPDH mRNA were used for internal controls and relative BDNF or Gadd45b mRNA/GAPDH mRNA levels were calculated.

In a further data set the test system is rats. The data set can be described thus: Seizure and abnormal behavior of LY451646 and AMPA in rats. Particulars: i.p. It counts as in vivo, rat.

pEC50, pIC50: −log10 of the molar value.

T1 sequence (P42261 19-906 isoform P42261-2 limits assumed): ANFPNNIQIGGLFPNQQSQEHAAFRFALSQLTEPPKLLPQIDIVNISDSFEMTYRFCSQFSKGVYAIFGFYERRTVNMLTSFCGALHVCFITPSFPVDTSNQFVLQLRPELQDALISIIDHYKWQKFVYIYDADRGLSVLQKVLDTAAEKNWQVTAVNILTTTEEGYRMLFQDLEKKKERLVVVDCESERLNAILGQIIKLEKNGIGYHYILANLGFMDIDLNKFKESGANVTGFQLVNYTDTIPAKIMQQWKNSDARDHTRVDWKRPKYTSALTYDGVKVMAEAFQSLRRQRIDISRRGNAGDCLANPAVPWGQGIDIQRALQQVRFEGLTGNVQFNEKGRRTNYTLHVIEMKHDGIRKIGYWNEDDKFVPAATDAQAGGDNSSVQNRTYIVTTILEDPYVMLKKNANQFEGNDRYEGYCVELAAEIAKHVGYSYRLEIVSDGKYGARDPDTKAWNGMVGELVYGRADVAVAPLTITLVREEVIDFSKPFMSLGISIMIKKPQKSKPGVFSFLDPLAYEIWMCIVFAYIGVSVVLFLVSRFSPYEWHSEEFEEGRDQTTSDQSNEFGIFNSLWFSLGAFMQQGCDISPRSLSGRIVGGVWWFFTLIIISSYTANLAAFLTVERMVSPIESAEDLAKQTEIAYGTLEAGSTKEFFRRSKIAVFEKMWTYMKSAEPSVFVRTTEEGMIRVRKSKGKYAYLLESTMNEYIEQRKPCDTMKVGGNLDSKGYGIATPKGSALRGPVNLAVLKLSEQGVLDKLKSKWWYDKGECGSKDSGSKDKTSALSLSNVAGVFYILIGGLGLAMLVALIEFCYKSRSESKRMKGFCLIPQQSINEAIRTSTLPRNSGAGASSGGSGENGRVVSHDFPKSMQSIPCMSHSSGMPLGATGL
T1 sequence (Q9Y698 whole entry partner): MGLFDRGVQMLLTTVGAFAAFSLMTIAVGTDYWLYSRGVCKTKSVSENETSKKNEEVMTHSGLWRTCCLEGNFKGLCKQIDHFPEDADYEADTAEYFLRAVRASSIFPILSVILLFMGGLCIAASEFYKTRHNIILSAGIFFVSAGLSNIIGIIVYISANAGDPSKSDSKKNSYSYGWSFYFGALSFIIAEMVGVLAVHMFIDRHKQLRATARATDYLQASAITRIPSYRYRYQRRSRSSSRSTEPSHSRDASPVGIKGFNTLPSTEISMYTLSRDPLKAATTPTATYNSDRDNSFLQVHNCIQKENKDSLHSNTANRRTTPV

As to `CC1=CN2CCS(=O)(=O)N=C2C(c2ccc(OC3CCCCC3)cc2)=N1` [TAK-653, 9-[4-(Cyclohexyloxy)phenyl]-7-methyl-3,4-dihydropyrazino[2,1-c][1,2,4]thiadiazine 2,2-dioxide], the pEC50 at hGluA1i was 5.48. The “Selectivity against 97 targets” value with 97 targets is “highly selective”. The pIC50 on lipoxygenase 5-LO was 5.23. Also, the “AMPA-induced BDNF and Gadd45b mRNA expression in hippocampus” value in the data set on BDNF and Gadd45b mRNA is “did not affect”.
Take `Cc1onc(O)c1CC(N)C(=O)O` (stereo not drawn) [AMPA, alpha-amino-3-hydroxy-5-methyl-4-isoxazole-propionic acid]: the Abnormal behavior entry with rats (10 mg/kg) is given as “abnormal behavior such as head turning”. Moreover, the Seizure entry with rats (30 mg/kg) was “induced seizure”.

For the origin of these results see article PMC8282797, “Strictly regulated agonist-dependent activation of AMPA-R is the key characteristic of TAK-653 for robust synaptic responses and cognitive improvement” (Scientific Reports, 2021).
